From patent publication US5496824A, “Cyclopropane derivatives and anti-viral agent containing the same” (Ajinomoto Co., Inc., priority 1993, dated 1996)
Converted amounts (≈) assume the structure as drawn.

Experiments:
Type in all cases: cell-based
HSV-1 (Tomioka strain) = test: Anti-viral activity against herpes simplex virus, neutral red dye-uptake method in Vero cells; settings: Human alphaherpesvirus 1, 72 h, 3 days at 37° C., read-out: ID50 (the source's name)
Protocol: (§1) The anti-viral activity of the prepared compounds against herpes simplex virus was measured by neutral red dye-uptake method (J. Infect. Dis. 148: 868 (1983)) with modification. Precisely, threefold dilutions of the compounds were prepared in 100 μl volumes of culture medium in the wells of a 96-well culture plate. Sixty microliters of a suspension of Vero cells (3×10^5 cells/ml) were then dispensed into each well. HSV-1 (Tomioka strain) was diluted in medium to approximately 100 TCID50 /40 μl, as determined by prior titration in a similar dye uptake assay, and 40 μl of viral suspension were added to the respective wells. Control wells containing no test compound and no virus (cell control) or no cells (blank control) were included in each plate. After 3 days incubation at 37° C. in 5% CO2 atmosphere, 50 μl of neutral red dye (0.15% in saline, pH 5.5) was dispensed into each well and the cultures were incubated for a further 45 min at 37° C. Unincorporated dye was removed by rinsing with PBS. The dye incorporated by viable cells was then eluted into 100 μl per well of citrate ethanol buffer (pH 4.2; equal volumes of 0.1 M Sorensen citrate buffer and ethanol), and absorbance at 540 nm of the solution was measured. […] As a comparative compound, acyclovir was used.

in vitro = settings: african green monkey, vero cells
Protocol: as §1

[1] = test system: varicella zoster virus (Kawaguchi strain); test: Anti-viral activity against varicella zoster virus, plaque reduction assay in human embryonic lung (HEL) cells; settings: Human alphaherpesvirus 3, 72 h, 3 days, read-out: PI50 (50% plaque decrease concentration)
Protocol: The activity of test compounds against varicella zoster virus was measured by plaque reduction assay. Confluent monolayers of human embryonic lung (HEL) cells grown in 6-well plates were infected with varicella zoster virus (Kawaguchi strain) in such a way that each well might have 100 plaque-forming units. After incubated at 37 C. for one hour in 5% CO2 atmosphere, the inoculum was removed and 3 ml of maintenance media containing the test compound having a varying concentration was added thereto. The incubation was continued for 3 days. After incubation, the cells were fixed and stained, the number of plaques was counted microscopically. In comparison to the control, the 50% plaque decrease concentration (PI50) of the test compound was determined. As a comparative compound, acyclovir was used.

| EC50 (HSV-1 (Tomioka strain)) | SMILES | CC50 at 72 h (in vitro) | IC50 [1] |
| --- | --- | --- | --- |
| 78 µg/mL (≈ 236 µM) | O=c1[nH]c(=O)n(C[C@]2(CO)C[C@@H]2CO)cc1/C=C/Br (relative stereo) [Example 15, 1-[1'α,2'β-2-bis(hydroxymethyl)cyclopropanyl-yl]methyl-5-[(E)-2-bromoethenyl]-2,4(1H,3H)-pyrimidinedione] | > 500 µg/mL | 87 µg/mL (≈ 263 µM) |
| > 500 µg/mL | O=c1[nH]c(=O)n(C[C@]2(CO)C[C@H]2CO)cc1F [Example 1, 1-[1'S,2'R-bis(hydroxymethyl)-cyclopropan-1'-yl]methyl-5-fluoro-2,4(1H,3H)pyrimidinedione] | > 500 µg/mL | > 100 µg/mL |
| 295 µg/mL (≈ 1130 µM) | O=c1[nH]c(=O)n(C[C@]2(CO)C[C@H]2CO)cc1Cl [Example 2, 1-[1'S,2'R-bis(hydroxymethyl)-cyclopropan-1'-yl]methyl-5-chloro-2,4(1H,3H)-pyrimidinedione] | > 500 µg/mL | > 100 µg/mL |
| 215 µg/mL (≈ 705 µM) | O=c1[nH]c(=O)n(C[C@]2(CO)C[C@H]2CO)cc1Br [Example 3, 1-[1'S,2'R-bis(hydroxymethyl)-cyclopropan-1'-yl]methyl-5-bromo-2,4(1H,3H)-pyrimidinedione] | > 500 µg/mL | 97 µg/mL (≈ 318 µM) |
| 90 µg/mL (≈ 256 µM) | O=c1[nH]c(=O)n(C[C@]2(CO)C[C@H]2CO)cc1I [Example 4, 1-[1'S,2'R-bis(hydroxymethyl)-cyclopropan-1'-yl]methyl-5-iodo-2,4(1H,3H)-pyrimidinedione] | > 500 µg/mL | 9.3 µg/mL (≈ 26.4 µM) |
| > 500 µg/mL | O=c1[nH]c(=O)n(C[C@]2(CO)C[C@H]2CO)cc1C(F)(F)F [Example 5, 1-[1'S,2'R-bis(hydroxymethyl)-cyclopropan-1'-yl]methyl-5-trifluoromethyl-2,4(1H,3H)-pyrimidinedione] | 234 µg/mL (≈ 795 µM) | > 100 µg/mL |
| 3.2 µg/mL (≈ 12.7 µM) | C=Cc1cn(C[C@]2(CO)C[C@H]2CO)c(=O)[nH]c1=O [Example 6, 1-[1'S,2'R-bis(hydroxymethyl)cyclopropan-1'-yl]methyl-5-ethenyl-2,4(1H,3H)-pyrimidinedione] | > 500 µg/mL | 11.1 µg/mL (≈ 44 µM) |
| 4.3 µg/mL (≈ 15 µM) | O=c1[nH]c(=O)n(C[C@]2(CO)C[C@H]2CO)cc1/C=C/Cl [Example 7, 1-[1'S, 2'R-bis(hydroxymethyl)-cyclopropan-1'-yl]methyl-5-[(E)-2-chloroethenyl]-2,4(1H,3H)-pyrimidinedione] | > 500 µg/mL | 0.07 µg/mL (≈ 0.244 µM) |
| 14.5 µg/mL (≈ 43.8 µM) | O=c1[nH]c(=O)n(C[C@]2(CO)C[C@H]2CO)cc1/C=C/Br [Example 8, 1-[1'S,2'R-bis(hydroxymethyl)-cyclopropan-1'-yl]methyl-5-[(E)-2-bromoethenyl]-2,4(1H,3H)-pyrimidinedione] | > 500 µg/mL | 0.031 µg/mL (≈ 0.0936 µM) |
| 24.6 µg/mL (≈ 65.1 µM) | O=c1[nH]c(=O)n(C[C@]2(CO)C[C@H]2CO)cc1/C=C/I [Example 10, 1-[1'S,2'R-bis(hydroxymethyl)-cyclopropan-1'-yl]methyl-5-[(E)-2-iodoethenyl]-2,4(1H,3H)-pyrimidinedione] | 330 µg/mL (≈ 873 µM) | 0.054 µg/mL (≈ 0.143 µM) |
| 310 µg/mL (≈ 1240 µM) | C#Cc1cn(C[C@]2(CO)C[C@H]2CO)c(=O)[nH]c1=O [Example 11, 1-[1'S,2'R-bis(hydroxymethyl)-cyclopropan-1'-yl]methyl-5-ethynyl-2,4(1H,3H)-pyrimidinedione] | > 500 µg/mL | > 100 µg/mL |
| 325 µg/mL (≈ 1230 µM) | CC#Cc1cn(C[C@]2(CO)C[C@H]2CO)c(=O)[nH]c1=O [Example 12, 1-[1'S,2'R-bis(hydroxymethyl)-cyclopropan-1'-yl]methyl-5-(1-propynyl)-2,4(1H,3H)-pyrimidinedione] | > 500 µg/mL | 19.8 µg/mL (≈ 74.9 µM) |
| 24.3 µg/mL (≈ 95.6 µM) | CCc1cn(C[C@]2(CO)C[C@H]2CO)c(=O)[nH]c1=O [Example 13, 1-[1'S,2'R-bis(hydroxymethyl)-cyclopropan-1'-yl]methyl-5-ethyl-2,4(1H,3H)-pyrimidinedione] | > 500 µg/mL | 95 µg/mL (≈ 374 µM) |
| > 500 µg/mL | O=c1[nH]c(=O)n(C[C@@]2(CO)C[C@@H]2CO)cc1/C=C/Br [Example 14, 1-[1'R,2'S-bis(hydroxymethyl)-cyclopropan-1'-yl]methyl-5-[(E)-2-bromoethenyl]-2,4(1H,3H)-pyrimidinedione] | > 500 µg/mL | 7.4 µg/mL (≈ 22.3 µM) |

| SMILES | EC50 (HSV-1 (Tomioka strain)) | CC50 at 72 h (in vitro) | IC50 [1] |
| --- | --- | --- | --- |
| Nc1nc2c(ncn2COCCO)c(=O)[nH]1 [acyclovir, reference compound] | 0.8 µg/mL (≈ 3.55 µM) | > 500 µg/mL | – |
